Among the data in US10450306B2, “Isoxazole analogs as FXR agonists and methods of use thereof” (Enanta Pharmaceuticals, Inc., priority 2016, dated 2019) are Emax and EC50 values, retold here.

This experiment has as its target T1, human FXR (NR1H4) (Homo sapiens, UniProt Q96RI1).
T1 construct: host or cells: CHO (Chinese hamster ovary) reporter cells
T1 sequence (Q96RI1 1-486): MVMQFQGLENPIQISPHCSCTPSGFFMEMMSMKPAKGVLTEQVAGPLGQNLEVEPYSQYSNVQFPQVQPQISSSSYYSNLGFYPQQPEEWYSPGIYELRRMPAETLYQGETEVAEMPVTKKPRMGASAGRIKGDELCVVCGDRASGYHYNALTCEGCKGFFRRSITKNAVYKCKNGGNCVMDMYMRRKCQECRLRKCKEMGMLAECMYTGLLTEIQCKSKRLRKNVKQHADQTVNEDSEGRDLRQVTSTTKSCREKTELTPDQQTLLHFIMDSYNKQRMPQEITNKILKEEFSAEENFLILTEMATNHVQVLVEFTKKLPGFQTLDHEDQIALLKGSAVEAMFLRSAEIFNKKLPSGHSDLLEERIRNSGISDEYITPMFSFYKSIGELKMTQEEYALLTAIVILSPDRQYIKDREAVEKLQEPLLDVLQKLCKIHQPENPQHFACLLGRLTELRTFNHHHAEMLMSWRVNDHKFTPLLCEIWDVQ
As to the kind of experiment: Human FXR (NR1H4) Assay: Gal4 promoter driven luciferase reporter transactivation in CHO cells (Indigo Bioscience kit IB00601). For Efficacy (%): efficacy normalized to CDCA set as 100%. Format: cell-based. The note with it: for Emax: CHO, read-out: Efficacy (%); for EC50: Human FXR (NR1H4) reporter assay, potency ranges. An excerpt:
Human FXR (NR1H4) Assay Determination of a ligand mediated Gal4 promoter driven transactivation to quantify ligand binding mediated activation of FXR. FXR Reporter Assay kit purchased from Indigo Bioscience (Catalogue number: IB00601) to determine the potency and efficacy of compound developed by Enanta that can induce FXR activation. The principle application of this reporter assay system is to quantify functional activity of human FXR. The assay utilizes non-human mammalian cells, CHO (Chinese hamster ovary) cells engineered to express human NR1H4 protein (referred to as FXR). Reporter cells also incorporate the cDNA encoding beetle luciferase which catalyzes the substrates and yields photon emission. Luminescence intensity of the reaction is quantified using a plate-reading luminometer, Envision. Reporter Cells include the luciferase reporter gene functionally linked to an FXR responsive promoter. Thus, quantifying changes in luciferase expression in the treated reporter cells provides a sensitive surrogate measure of the changes in FXR activity. […] The assay is according to the manufacturer's instructions. In brief, the assay was performed in white, 96 well plates using final volume of 100 ul containing cells with different doses of compounds. Retrieve Reporter Cells from −80° C. storage. Perform a rapid thaw of the frozen cells by transferring a 10 ml volume of 37° C. cell recovery medium into the tube of frozen cells. Recap the tube of Reporter Cells and immediately place it in a 37° C. water bath for 5-10 minutes. Retrieve the tube of Reporter Cell Suspension from the water bath. Sanitize the outside surface of the tube with a 70% alcohol swab, and then transfer it into the cell culture hood. Dispense 90 μl of cell suspension into each well of the 96-well Assay Plate. Transfer the plate into 37° C. incubator, allowing the cells adherent to the bottom of the well. Dilute compounds in Dilution Plate (DP), and administrate to cells at Assay Plate (AP). DMSO content of the samples was kept at 0.2%. Cells were incubated for additional 22 hours before luciferase activities were measured. Thirty minutes before intending to quantify FXR activity, remove Detection Substrate and Detection Buffer from the refrigerator and place them in a low-light area so that they may equilibrate to room temperature. Remove the plate's lid and discard all media contents by ejecting it into an appropriate waste container. Gently tap the inverted plate onto a clean absorbent paper towel to remove residual droplets. Cells will remain tightly adhered to well bottoms. Add 100 ul of luciferase detection reagent to each well of the assay plate. Allow the assay plate to rest at room temperature for at least 5 minutes following the addition of LDR. Set the instrument (Envision) to perform a single 5 second “plate shake” prior to reading the first assay well. Read time may be 0.5 second (500 mSec) per well.
On the technique in general: A reporter such as luciferase makes a cellular process visible.

Bounds are passed on as bounds.

On to `O=C(O)c1cc2sc(N3C4CCC3CC(NCc3c(-c5c(Cl)cccc5Cl)noc3C3CC3)C4)nc2c2ccccc12` (stereo not shown) [Example 200-28], for which the Emax worked out at 132% and the half-maximal effective concentration (EC50) – broadly, the midpoint of the concentration-response curve – is less than 1 nM.

Consider `COC(=O)c1cc(C2CC2)c2nc(N3C4CCC3CC(NCc3c(-c5c(Cl)cccc5Cl)noc3C3CC3)C4)sc2c1` (stereo not shown) [Example 200-29], for which the Emax turned out to be 94% and the EC50 was 1 to 100 nM.

As to `O=C(O)c1cc(C2CC2)c2nc(N3C4CCC3CC(NCc3c(-c5c(Cl)cccc5Cl)noc3C3CC3)C4)sc2c1` (stereo not shown) [Example 200-30], the Emax came to 108% and the EC50 is less than 1 nM.

Take `O=C(NS(=O)(=O)C1CC1)c1ccc2nc(N3C4CCC3CC(NCc3c(-c5c(Cl)cccc5Cl)noc3C3CC3)C4)sc2c1` (stereo not shown) [Example 201]: the Emax was found to be 282% and the 50% effective concentration (EC50) is less than 1 nM.

On to `CC1(S(=O)(=O)NC(=O)c2ccc3nc(N4C5CCC4CC(NCc4c(-c6c(Cl)cccc6Cl)noc4C4CC4)C5)sc3c2)CC1` (stereo not shown) [Example 202], for which the Emax came to 279% and the EC50 was less than 1 nM.

Turning to `O=C(NS(=O)(=O)N1CCCC1)c1ccc2nc(N3C4CCC3CC(NCc3c(-c5c(Cl)cccc5Cl)noc3C3CC3)C4)sc2c1` (stereo not shown) [Example 227], the Emax was 256% and the concentration for a half-maximal effect (EC50) is less than 1 nM.

As to `O=C(NS(=O)(=O)N1CCCCC1)c1ccc2nc(N3C4CCC3CC(NCc3c(-c5c(Cl)cccc5Cl)noc3C3CC3)C4)sc2c1` (stereo not shown) [Example 228], the Emax worked out at 140% and the concentration giving a half-maximal response (EC50) was in the range of 1 to 100 nM.

On to `O=C(NS(=O)(=O)C1CCCC1)c1ccc2nc(N3C4CCC3CC(NCc3c(-c5c(Cl)cccc5Cl)noc3C3CC3)C4)sc2c1` (stereo not shown) [Example 231], for which the Emax worked out at 277% and the half-maximal effective concentration (EC50) was less than 1 nM.

As to `O=C(NS(=O)(=O)N1CCOCC1)c1ccc2nc(N3C4CCC3CC(NCc3c(-c5c(Cl)cccc5Cl)noc3C3CC3)C4)sc2c1` (stereo not shown) [Example 234], the Emax came out at 146% and the EC50 lay in the range of 100 to 1000 nM.

Regarding `O=C(NS(=O)(=O)C(F)(F)F)c1ccc2nc(N3C4CCC3CC(NCc3c(-c5c(Cl)cccc5Cl)noc3C3CC3)C4)sc2c1` (stereo not shown) [Example 236], the Emax worked out at 75% and the EC50 is 1 to 100 nM.

Regarding `CC(C)S(=O)(=O)NC(=O)c1ccc2nc(N3C4CCC3CC(NCc3c(-c5c(Cl)cccc5Cl)noc3C3CC3)C4)sc2c1` (stereo not shown) [Example 237], the Emax is 226% and the concentration giving a half-maximal response (EC50) fell in the range of 1 to 100 nM.

Regarding `CC(C)(C)CS(=O)(=O)NC(=O)c1ccc2nc(N3C4CCC3CC(NCc3c(-c5c(Cl)cccc5Cl)noc3C3CC3)C4)sc2c1` (stereo not shown) [Example 239], the Emax was found to be 201% and the 50% effective concentration (EC50) was in the range of 1 to 100 nM.

For the molecule `CC(C)(C)S(=O)(=O)NC(=O)c1ccc2nc(N3C4CCC3CC(NCc3c(-c5c(Cl)cccc5Cl)noc3C3CC3)C4)sc2c1` (stereo not shown) [Example 240], the Emax was 245% and the EC50 was less than 1 nM.

Turning to `O=C(NS(=O)(=O)c1ccccc1)c1ccc2nc(N3C4CCC3CC(NCc3c(-c5c(Cl)cccc5Cl)noc3C3CC3)C4)sc2c1` (stereo not shown) [Example 257], the Emax was determined as 203% and the EC50 is 1 to 100 nM.

`O=C(NS(=O)(=O)c1nccs1)c1ccc2nc(N3C4CCC3CC(NCc3c(-c5c(Cl)cccc5Cl)noc3C3CC3)C4)sc2c1` (stereo not shown) [Example 268]: the Emax was found to be 129% and the EC50 was in the range of 100 to 1000 nM.

Regarding `CN(c1nc2ccc(C(=O)NS(=O)(=O)N(C)C)cc2s1)C1CCC(OCc2c(-c3c(Cl)cccc3Cl)noc2C2CC2)CC1` (stereo not shown) [Example 279], the Emax is 158% and the concentration for a half-maximal effect (EC50) fell in the range of 100 to 1000 nM.

For the molecule `CN(C)S(=O)(=O)NC(=O)c1ccc2nc(N3C4CCC3CN(Cc3c(-c5c(Cl)cccc5Cl)noc3C3CC3)C4)sc2c1` [Example 280], the Emax is 242% and the concentration giving a half-maximal response (EC50) lay in the range of 1 to 100 nM.

For the molecule `CN(C)S(=O)(=O)NC(=O)c1ccc2nc(N3CCN(Cc4c(-c5c(Cl)cccc5Cl)noc4C4CC4)CC3)sc2c1` [Example 281], the Emax stood at 171% and the EC50 fell in the range of 1 to 100 nM.

With `CN(C)S(=O)(=O)NC(=O)c1ccc2nc(N3CCC(NCc4c(-c5c(Cl)cccc5Cl)noc4C4CC4)CC3)sc2c1` [Example 282], the Emax amounted to 142% and the 50% effective concentration (EC50) was 1 to 100 nM.

Turning to `CN(C)S(=O)(=O)NC(=O)c1ccc2nc(N3C4CCC3CC(NCc3c(-c5c(Cl)cccc5Cl)noc3C3CC3)C4)sc2c1` (stereo not shown) [Example 283], the Emax amounted to 246% and the EC50 is greater than 1000 nM.

As to `CC(C)(C)c1ccc(S(=O)(=O)NC(=O)c2ccc3nc(N4C5CCC4CC(NCc4c(-c6c(Cl)cccc6Cl)noc4C4CC4)C5)sc3c2)cc1` (stereo not shown) [Example 284], the Emax was found to be 54% and the EC50 is greater than 1000 nM.

For `CC(C)(C)c1ccc(S(=O)(=O)NC(=O)c2cccc(N3CCN(Cc4c(-c5c(Cl)cccc5Cl)noc4C4CC4)CC3)c2)cc1` [Example 285], the Emax came out at 126% and the half-maximal effective concentration (EC50) lay in the range of 100 to 1000 nM.

Consider `O=C(NS(=O)(=O)C1CC1)c1ccc2nc(N3CCC(NCc4c(-c5c(Cl)cccc5Cl)noc4C4CC4)CC3)sc2c1` [Example 291], for which the Emax turned out to be 171% and the EC50 fell in the range of 1 to 100 nM.

For `CN(Cc1c(-c2c(Cl)cccc2Cl)noc1C1CC1)[C@H]1C[C@H]2CC[C@@H](C1)N2c1nc2ccc(C(=O)NS(=O)(=O)C3CC3)cc2s1` [Example 292], the Emax worked out at 212% and the 50% effective concentration (EC50) is 1 to 100 nM.

Take `CN(Cc1c(-c2c(Cl)cccc2Cl)noc1C1CC1)[C@H]1C[C@H]2CC[C@@H](C1)N2c1nc2ccc(C(=O)NS(=O)(=O)C3(C)CC3)cc2s1` [Example 293]: the Emax is 92% and the concentration for a half-maximal effect (EC50) is 1 to 100 nM.

In the case of `CC1(S(=O)(=O)NC(=O)c2ccc3nc(N4C5CCC4CC(N(C=O)Cc4c(-c6c(Cl)cccc6Cl)noc4C4CC4)C5)sc3c2)CC1` (stereo not shown) [Example 294], the Emax stood at 130% and the EC50 is greater than 1000 nM.

Turning to `CC1(S(=O)(=O)NC(=O)c2cc(F)c3nc(N4C5CCC4CC(NCc4c(-c6c(Cl)cccc6Cl)noc4C4CC4)C5)sc3c2)CC1` (stereo not shown) [Example 295], the Emax was determined as 152% and the EC50 lay in the range of 1 to 100 nM.

Turning to `[2H]C([2H])([2H])C1(S(=O)(=O)NC(=O)c2cc(F)c3nc(N4C5CCC4CC(NCc4c(-c6c(Cl)cccc6Cl)noc4C4CC4)C5)sc3c2)CC1` (stereo not shown) [Example 296], the Emax turned out to be 184% and the concentration giving a half-maximal response (EC50) is less than 1 nM.

For `CN(C)S(=O)(=O)NC(=O)c1cc(F)c2nc(N3C4CCC3CC(NCc3c(-c5c(Cl)cccc5Cl)noc3C3CC3)C4)sc2c1` (stereo not shown) [Example 297], the Emax came to 150% and the half-maximal effective concentration (EC50) is less than 1 nM.

Regarding `O=C(NS(=O)(=O)C1CC1)c1cc(F)c2nc(N3C4CCC3CC(NCc3c(-c5c(Cl)cccc5Cl)noc3C3CC3)C4)sc2c1` (stereo not shown) [Example 298], the Emax amounted to 155% and the EC50 lay in the range of 1 to 100 nM.

Take `O=CC1(S(=O)(=O)NC(=O)c2cc(F)c3nc(N4C5CCC4CC(NCc4c(-c6c(Cl)cccc6Cl)noc4C4CC4)C5)sc3c2)CC1` (stereo not shown) [Example 299]: the Emax came out at 154% and the EC50 is 1 to 100 nM.

Turning to `O=C(NS(=O)(=O)N1CCCCC1)c1cc(F)c2nc(N3C4CCC3CC(NCc3c(-c5c(Cl)cccc5Cl)noc3C3CC3)C4)sc2c1` (stereo not shown) [Example 300], the Emax is 143% and the EC50 was less than 1 nM.

`CN(C)S(=O)(=O)NC(=O)c1ccc2nc(N3C4CCC3CC(NCc3c(-c5c(Cl)cccc5Cl)noc3C3CC3)C4)oc2c1` (stereo not shown) [Example 301]: the Emax came to 63% and the EC50 is less than 1 nM.

As for `CC1(S(=O)(=O)NC(=O)c2ccc3nc(N4C5CCC4CC(NCc4c(-c6c(Cl)cccc6Cl)noc4C4CC4)C5)oc3c2)CC1` (stereo not shown) [Example 302], the Emax is 62% and the EC50 was 1 to 100 nM.

Turning to `COc1cc(C(=O)NS(=O)(=O)C2(C)CC2)cc2sc(N3C4CCC3CC(NCc3c(-c5c(Cl)cccc5Cl)noc3C3CC3)C4)nc12` (stereo not shown) [Example 304], the Emax was 139% and the 50% effective concentration (EC50) is less than 1 nM.
